Reference: PubChem BioAssay (NCI)
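These data come from cells grown in 96-well plates and exposed to compound for 48 hours at five concentrations. Abbreviation: GI50, concentration required for 50% inhibition of growth. The concentration for full growth arrest is given as TGI.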

Legend:
Assay in all cases: DTP human tumour cell line panel, 48 h
EKVX NSCLC = tested on: EKVX NSCLC
SF-295 CNS = tested on: SF-295 CNS
UO-31 renal = tested on: UO-31 renal
HCT-15 colon = tested on: HCT-15 colon
K-562 leukemia = tested on: K-562 leukemia
BT-549 breast = tested on: BT-549 breast
RXF 393 renal = tested on: RXF 393 renal
RPMI-8226 leukemia = tested on: RPMI-8226 leukemia
NCI-H460 lung = tested on: NCI-H460 lung
SK-MEL-5 melanoma = tested on: SK-MEL-5 melanoma
SF-268 CNS = tested on: SF-268 CNS
SK-OV-3 ovarian = tested on: SK-OV-3 ovarian
OVCAR-4 ovarian = tested on: OVCAR-4 ovarian
SNB-75 CNS = tested on: SNB-75 CNS
NCI-H23 lung = tested on: NCI-H23 lung
HCT-116 colon = tested on: HCT-116 colon
MALME-3M melanoma = tested on: MALME-3M melanoma
SN12C renal = tested on: SN12C renal
786-0 renal = tested on: 786-0 renal
TK-10 renal = tested on: TK-10 renal
HL-60(TB) leukemia = tested on: HL-60(TB) leukemia
HS 578T breast = tested on: HS 578T breast
MDA-MB-435 = tested on: MDA-MB-435
PC-3 prostate = tested on: PC-3 prostate
CAKI-1 renal = tested on: CAKI-1 renal
ACHN renal = tested on: ACHN renal
SF-539 CNS = tested on: SF-539 CNS
A549 NSCLC = tested on: A549 NSCLC
A498 renal = tested on: A498 renal
UACC-62 melanoma = tested on: UACC-62 melanoma
IGROV1 ovarian = tested on: IGROV1 ovarian
SW-620 colon = tested on: SW-620 colon
M14 melanoma = tested on: M14 melanoma
UACC-257 melanoma = tested on: UACC-257 melanoma
MDA-MB-468 breast = tested on: MDA-MB-468 breast
HOP-92 NSCLC = tested on: HOP-92 NSCLC
COLO 205 colon = tested on: COLO 205 colon
U251 CNS = tested on: U251 CNS
HT29 colon = tested on: HT29 colon
OVCAR-3 ovarian = tested on: OVCAR-3 ovarian
HCC-2998 colon = tested on: HCC-2998 colon
MCF7 breast = tested on: MCF7 breast
SK-MEL-2 melanoma = tested on: SK-MEL-2 melanoma
SR leukemia = tested on: SR leukemia
SNB-19 CNS = tested on: SNB-19 CNS
OVCAR-5 ovarian = tested on: OVCAR-5 ovarian
HOP-62 NSCLC = tested on: HOP-62 NSCLC
T-47D breast = tested on: T-47D breast
CCRF-CEM leukemia = tested on: CCRF-CEM leukemia
NCI-H226 lung = tested on: NCI-H226 lung
LOX IMVI melanoma = tested on: LOX IMVI melanoma
NCI-H522 lung = tested on: NCI-H522 lung
OVCAR-8 ovarian = tested on: OVCAR-8 ovarian
MOLT-4 leukemia = tested on: MOLT-4 leukemia
KM12 colon = tested on: KM12 colon
SK-MEL-28 melanoma = tested on: SK-MEL-28 melanoma
NCI/ADR-RES ovarian = tested on: NCI/ADR-RES ovarian
DU-145 prostate = tested on: DU-145 prostate
MDA-MB-231 breast = tested on: MDA-MB-231 breast

O=C(O)CCCCCCCCCCN1C(=O)/C(=C/c2cnc(-c3ccc(Cl)cc3)s2)SC1=S
GI50 (EKVX NSCLC): 1.84 µM | TGI (EKVX NSCLC): 5.13 µM | GI50 (SF-295 CNS): 2.29 µM | TGI (SF-295 CNS): 7.26 µM | GI50 (UO-31 renal): 3.76 µM | TGI (UO-31 renal): 28.2 µM | GI50 (HCT-15 colon): 1.71 µM | TGI (HCT-15 colon): 3.67 µM | GI50 (K-562 leukemia): 3.71 µM | TGI (K-562 leukemia): > 100 µM | GI50 (BT-549 breast): 1.95 µM | TGI (BT-549 breast): 6.1 µM | GI50 (RXF 393 renal): 12.1 µM | TGI (RXF 393 renal): 47.3 µM | GI50 (RPMI-8226 leukemia): 10.3 µM | TGI (RPMI-8226 leukemia): > 100 µM | GI50 (NCI-H460 lung): 1.37 µM | TGI (NCI-H460 lung): > 100 µM | GI50 (SK-MEL-5 melanoma): 1.86 µM | TGI (SK-MEL-5 melanoma): 4.74 µM | GI50 (SF-268 CNS): 4.99 µM | TGI (SF-268 CNS): > 100 µM | GI50 (SK-OV-3 ovarian): 3.24 µM | TGI (SK-OV-3 ovarian): 8.72 µM | GI50 (OVCAR-4 ovarian): 5.56 µM | TGI (OVCAR-4 ovarian): > 100 µM | GI50 (SNB-75 CNS): 15.4 µM | TGI (SNB-75 CNS): 42.3 µM | GI50 (NCI-H23 lung): 2.43 µM | TGI (NCI-H23 lung): 8.95 µM | GI50 (HCT-116 colon): 1.75 µM | TGI (HCT-116 colon): 7.51 µM | GI50 (MALME-3M melanoma): 5.92 µM | TGI (MALME-3M melanoma): 28.1 µM | GI50 (SN12C renal): 1.39 µM | TGI (SN12C renal): 2.89 µM | GI50 (786-0 renal): 2.64 µM | TGI (786-0 renal): 9.67 µM | GI50 (TK-10 renal): 5.48 µM | TGI (TK-10 renal): 16.1 µM | GI50 (HL-60(TB) leukemia): 3.91 µM | TGI (HL-60(TB) leukemia): > 100 µM | GI50 (HS 578T breast): 11.7 µM | TGI (HS 578T breast): > 100 µM | GI50 (MDA-MB-435): 4.69 µM | TGI (MDA-MB-435): > 100 µM | GI50 (PC-3 prostate): 1.26 µM | TGI (PC-3 prostate): 4.9 µM | GI50 (CAKI-1 renal): 3.31 µM | TGI (CAKI-1 renal): 14.3 µM | GI50 (ACHN renal): 2.38 µM | TGI (ACHN renal): 11.7 µM | GI50 (SF-539 CNS): 3.18 µM | TGI (SF-539 CNS): 13.2 µM | GI50 (A549 NSCLC): 1.01 µM | TGI (A549 NSCLC): 4.51 µM | GI50 (A498 renal): 15.9 µM | TGI (A498 renal): 34.5 µM | GI50 (UACC-62 melanoma): 1.57 µM | TGI (UACC-62 melanoma): 3.29 µM | GI50 (IGROV1 ovarian): 2.89 µM | TGI (IGROV1 ovarian): 13.7 µM | GI50 (SW-620 colon): 2.52 µM | TGI (SW-620 colon): 7.21 µM | GI50 (M14 melanoma): 2.1 µM | TGI (M14 melanoma): 5.71 µM | GI50 (UACC-257 melanoma): 5.6 µM | TGI (UACC-257 melanoma): > 100 µM | GI50 (MDA-MB-468 breast): 2.63 µM | TGI (MDA-MB-468 breast): 12 µM | GI50 (HOP-92 NSCLC): 0.292 µM | TGI (HOP-92 NSCLC): 1.79 µM | GI50 (COLO 205 colon): > 100 µM | TGI (COLO 205 colon): > 100 µM | GI50 (U251 CNS): 2.07 µM | TGI (U251 CNS): 6.06 µM | GI50 (HT29 colon): > 100 µM | TGI (HT29 colon): > 100 µM | GI50 (OVCAR-3 ovarian): 4.87 µM | TGI (OVCAR-3 ovarian): 51.4 µM | GI50 (HCC-2998 colon): 5.03 µM | TGI (HCC-2998 colon): > 100 µM | GI50 (MCF7 breast): 3.73 µM | TGI (MCF7 breast): > 100 µM | GI50 (SK-MEL-2 melanoma): 2.12 µM | TGI (SK-MEL-2 melanoma): 5.02 µM | GI50 (SR leukemia): 0.367 µM | TGI (SR leukemia): 4.8 µM | GI50 (SNB-19 CNS): 2.86 µM | TGI (SNB-19 CNS): 9.76 µM | GI50 (OVCAR-5 ovarian): 2.59 µM | TGI (OVCAR-5 ovarian): > 100 µM | GI50 (HOP-62 NSCLC): 3.81 µM | TGI (HOP-62 NSCLC): 15.9 µM | GI50 (T-47D breast): 4.77 µM | TGI (T-47D breast): > 100 µM | GI50 (CCRF-CEM leukemia): 3.11 µM | TGI (CCRF-CEM leukemia): > 100 µM | GI50 (NCI-H226 lung): 6.46 µM | TGI (NCI-H226 lung): 57.2 µM | GI50 (LOX IMVI melanoma): 1.69 µM | TGI (LOX IMVI melanoma): 3.87 µM | GI50 (NCI-H522 lung): 1.68 µM | TGI (NCI-H522 lung): 4.55 µM | GI50 (OVCAR-8 ovarian): 1.65 µM | TGI (OVCAR-8 ovarian): 5.11 µM | GI50 (MOLT-4 leukemia): 3.39 µM | TGI (MOLT-4 leukemia): > 100 µM | GI50 (KM12 colon): 2.93 µM | TGI (KM12 colon): > 100 µM | GI50 (SK-MEL-28 melanoma): 2.69 µM | GI50 (NCI/ADR-RES ovarian): 1.69 µM | TGI (NCI/ADR-RES ovarian): 8.18 µM | GI50 (DU-145 prostate): 1.81 µM | TGI (DU-145 prostate): 30 µM | GI50 (MDA-MB-231 breast): 1.65 µM | TGI (MDA-MB-231 breast): 4.48 µM
